ChEMBL document CHEMBL1201862, “PubChem BioAssay data set” (2004)
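Interpolation was linear, between the two tested concentrations surrounding the appropriate level; five concentrations were tested over 48 hours in 96-well plates. GI50 is the concentration that inhibits growth by half.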 Active and inactive are the calls of the source. No stated cut-off is given here; in the data, active = GI50 up to about 1.1 µM and inactive = higher.

Tests used:
Assay in all cases: DTP human tumour cell line panel, 48 h
[1] = test system: MOLT-4
[2] = test system: A549
[3] = test system: MDA-MB-435
[4] = test system: HOP-92
[5] = test system: SR
[6] = test system: A498
[7] = test system: HCT-116
[8] = test system: UACC-62
[9] = test system: PC-3
[10] = test system: MCF7
[11] = test system: Hs-578T
[12] = test system: OVCAR-5
[13] = test system: IGROV-1
[14] = test system: K562
[15] = test system: OVCAR-8
[16] = test system: SK-MEL-5
[17] = test system: LOX IMVI
[18] = test system: SF-268
[19] = test system: SW-620
[20] = test system: OVCAR-3
[21] = test system: OVCAR-4
[22] = test system: Malme-3M
[23] = test system: M14
[24] = test system: HT-29
[25] = test system: RPMI-8226
[26] = test system: U-251
[27] = test system: 786-0
[28] = test system: UO-31
[29] = test system: SNB-75
[30] = test system: RXF 393
[31] = test system: HCT-15
[32] = test system: CCRF-CEM
[33] = test system: NCI-H226
[34] = test system: MDA-MB-231
[35] = test system: SK-OV-3
[36] = test system: UACC-257
[37] = test system: COLO 205
[38] = test system: CAKI-1
[39] = test system: SNB-19
[40] = test system: SF-295
[41] = test system: DU-145
[42] = test system: HOP-62
[43] = test system: SN12C
[44] = test system: NCI-H522
[45] = test system: SK-MEL-2
[46] = test system: ACHN
[47] = test system: BT-549
[48] = test system: SK-MEL-28
[49] = test system: NCI/ADR-RES
[50] = test system: T47D
[51] = test system: KM12
[52] = test system: HCC 2998
[53] = test system: EKVX
[54] = test system: MDA-N
[55] = test system: NCI-H23
[56] = test system: TK-10
[57] = test system: NCI-H460

`O=C(/C=C/c1csc(-c2ccccc2)n1)NCc1ccc(C(=O)NCCc2ccccc2)cc1` was tested, and the GI50 [1] was > 100 µM (inactive), the GI50 [2] was 26.7 µM (inactive) and the GI50 [3] was > 100 µM (inactive). The GI50 [4] was 6.85 µM (inactive), the GI50 [5] was > 100 µM (inactive) and the GI50 [6] was 19.8 µM (inactive). For the same compound, the GI50 [7] was 26.9 µM (inactive), the GI50 [8] was 31.8 µM (inactive) and the GI50 [9] was 49.4 µM (inactive). The GI50 [10] was 72.3 µM (inactive), the GI50 [11] was 7.05 µM (inactive) and the GI50 [12] was 73.3 µM (inactive). The GI50 [13] was 36.6 µM (inactive), the GI50 [14] was > 100 µM (inactive) and the GI50 [15] was 4.23 µM (inactive). The GI50 [16] was 69.5 µM (inactive), the GI50 [17] was 79.4 µM (inactive) and the GI50 [18] was 5.94 µM (inactive). For the same compound, the GI50 [19] was 74.5 µM (inactive), the GI50 [20] was 63.8 µM (inactive) and the GI50 [21] was 24.5 µM (inactive). For the same compound, the GI50 [22] was 24.3 µM (inactive), the GI50 [23] was 39.8 µM (inactive) and the GI50 [24] was 5.09 µM (inactive). The GI50 [25] was > 100 µM (inactive), the GI50 [26] was 5.16 µM (inactive) and the GI50 [27] was 8.63 µM (inactive). For the same compound, the GI50 [28] was 48.1 µM (inactive), the GI50 [29] was 2.6 µM (inactive) and the GI50 [30] was 2.7 µM (inactive). The GI50 [31] was 93.5 µM, the GI50 [32] was > 100 µM (inactive) and the GI50 [33] was 25.5 µM (inactive). For the same compound, the GI50 [34] was 5.38 µM (inactive), the GI50 [35] was 12.3 µM (inactive) and the GI50 [36] was 27.2 µM (inactive). For the same compound, the GI50 [37] was 42.1 µM (inactive), the GI50 [38] was 15.6 µM (inactive) and the GI50 [39] was 11.4 µM (inactive). For the same compound, the GI50 [40] was 9.73 µM (inactive), the GI50 [41] was 88.5 µM (inactive) and the GI50 [42] was 2.64 µM (inactive). For the same compound, the GI50 [43] was 44.9 µM (inactive), the GI50 [44] was 34.6 µM (inactive) and the GI50 [45] was 32 µM (inactive). For the same compound, the GI50 [46] was 19.3 µM (inactive), the GI50 [47] was 22.3 µM (inactive) and the GI50 [48] was 24 µM (inactive). For the same compound, the GI50 [49] was 11.6 µM (inactive), the GI50 [50] was 41.2 µM (inactive) and the GI50 [51] was 61.1 µM (inactive). For the same compound, the GI50 [52] was > 100 µM (inactive), the GI50 [53] was 93.5 µM (inactive) and the GI50 [54] was > 100 µM (inactive). For the same compound, the GI50 [55] was 29.7 µM (inactive), the GI50 [56] was 11.7 µM (inactive) and the GI50 [57] was 55.3 µM (inactive).
